Measured values published in publication PMC10441804, “Insect fungal pathogens secrete a cell wall-associated glucanase that acts to help avoid recognition by the host immune system” (PLOS Pathogens, 2023).

Molecular target: T1, BbEng1 (Beauveria bassiana, UniProt J4W7P1)
T1 construct: gene BBA_04753; full precursor 588 aa, 21-residue signal peptide removed; GH16 domain 22-343; expressed in Pichia pastoris GS115 (pPIC9K), purified, detected by anti-His tag
Assay: glucose release, glucose oxidase method
Assay type: biochemical
Conditions: pH 6.0 (50 mM sodium acetate buffer), 37 °C, 1 h

T1 sequence (J4W7P1 entry or part of it): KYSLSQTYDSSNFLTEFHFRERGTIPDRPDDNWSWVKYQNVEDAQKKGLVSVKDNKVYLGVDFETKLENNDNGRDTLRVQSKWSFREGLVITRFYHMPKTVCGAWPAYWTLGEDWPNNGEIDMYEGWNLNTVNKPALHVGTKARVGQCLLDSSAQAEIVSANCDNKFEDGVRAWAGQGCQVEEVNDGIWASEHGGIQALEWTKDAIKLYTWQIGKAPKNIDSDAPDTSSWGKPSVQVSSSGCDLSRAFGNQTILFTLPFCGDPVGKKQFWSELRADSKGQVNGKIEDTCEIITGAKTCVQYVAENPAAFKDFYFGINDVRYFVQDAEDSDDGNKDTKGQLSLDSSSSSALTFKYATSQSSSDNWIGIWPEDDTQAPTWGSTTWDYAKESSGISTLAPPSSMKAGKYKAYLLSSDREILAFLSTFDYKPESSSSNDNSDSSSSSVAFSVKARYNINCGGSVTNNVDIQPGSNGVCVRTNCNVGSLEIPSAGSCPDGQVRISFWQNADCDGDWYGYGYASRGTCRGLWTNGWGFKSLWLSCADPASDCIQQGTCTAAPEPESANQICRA

OC[C@H]1O[C@@H](O[C@@H]2[C@@H](O)[C@H](O[C@@H]3[C@@H](O)[C@H](O[C@H]4[C@H](O)[C@@H](CO)OC(O)[C@@H]4O)O[C@H](CO)[C@H]3O)O[C@H](CO)[C@H]2O)[C@H](O)[C@@H](O)[C@@H]1O (stereo partly shown) [laminaritetraose]
glucose release, glucose oxidase method: Measurement of glucanase activity indicated release of reducing sugar from laminaritetraose (β-1,3-glucose)
